Tests used:
Assay in all cases: metabolism of 3 by recombinant human P450
Assay type in all cases: in vitro ADME
P450 1A1 = target: T1, P450 1A1 (Homo sapiens, UniProt P04798); conditions: recombinant P450 1A1, preliminary screen
T1 construct: made in house; host or cells: Escherichia coli, bacterial membrane fraction, bicistronic vector
T1 sequence (P04798 1-512): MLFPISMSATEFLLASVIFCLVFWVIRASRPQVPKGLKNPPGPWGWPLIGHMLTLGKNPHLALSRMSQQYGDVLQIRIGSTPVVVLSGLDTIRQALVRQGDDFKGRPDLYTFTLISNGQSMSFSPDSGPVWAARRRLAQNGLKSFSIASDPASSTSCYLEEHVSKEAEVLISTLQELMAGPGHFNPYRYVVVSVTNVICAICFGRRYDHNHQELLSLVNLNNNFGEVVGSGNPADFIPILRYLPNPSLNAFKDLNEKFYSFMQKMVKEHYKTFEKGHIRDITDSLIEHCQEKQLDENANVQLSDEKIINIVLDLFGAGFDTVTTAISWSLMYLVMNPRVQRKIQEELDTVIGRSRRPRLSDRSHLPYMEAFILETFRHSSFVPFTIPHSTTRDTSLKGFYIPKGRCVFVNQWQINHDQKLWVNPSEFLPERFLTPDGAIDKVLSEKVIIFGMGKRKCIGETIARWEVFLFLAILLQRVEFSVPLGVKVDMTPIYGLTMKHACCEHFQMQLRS
Description: (§1) Recombinant P450s were co-expressed with hNPR in Escherichia coli according to the general procedures outlined previously. Recombinant P450 preparations were obtained from bacteria transformed with bicistronic expression vectors for P450s 1A1, 1A2, 2D6, 2E1 and 3A4 [6]; 1B1 [10]; 2A6 [8]; P450 2B6 [11]; 2C9 (wild type; P450 2C9*1) and 2C19 [12]; 3A5 and 3A7 [12] and 4A11 (D. Kim and F. P. Guengerich, unpublished data). cDNAs for P450s 2C8 and 2C18 were obtained from Prof D. J. Birkett (Flinders University of South Australia) and Prof. Philippe Beaune (INSERM U490, Universite Rene Descartes, Paris V, France) respectively, and bicistronic constructs in pCW were made according to previously published methods. Membranes from cells transformed with the monocistronic expression vector for recombinant human reductase, pCW′/hNPR, were used as a negative control. Expression of P450s and preparation of bacterial membrane fractions was done according to established methods.
(§2) Incubations (0.2 mL) with recombinant enzyme preparations were performed as described above except that bacterial membrane preparations were used at 0.1 μM P450. For P450s 3A4 and 3A5, reductase concentrations were supplemented to two fold the P450 concentration by addition of membranes from cells expressing reductase alone. For P450s 2C9 and 2C19, reductase concentrations were supplemented to five fold the P450 concentration. Negative controls contained bacterial membranes derived from cells transformed with the empty expression vector alone (“pCW”) or cells expressing only reductase (“hNPR”). Negative controls contained membranes added at total protein (“pCW”) or reductase “hNPR”) concentrations at the upper limit of those present in incubations with recombinant P450 preparations.
(§3) A preliminary screen was performed to investigate metabolism of 3 by recombinant human P450s.

P450 1B1 = target: T2, P450 1B1 (Homo sapiens, UniProt Q16678); conditions: recombinant P450 1B1, preliminary screen
T2 construct: made in house; host or cells: Escherichia coli, bacterial membrane fraction, bicistronic vector
T2 sequence (Q16678 1-543): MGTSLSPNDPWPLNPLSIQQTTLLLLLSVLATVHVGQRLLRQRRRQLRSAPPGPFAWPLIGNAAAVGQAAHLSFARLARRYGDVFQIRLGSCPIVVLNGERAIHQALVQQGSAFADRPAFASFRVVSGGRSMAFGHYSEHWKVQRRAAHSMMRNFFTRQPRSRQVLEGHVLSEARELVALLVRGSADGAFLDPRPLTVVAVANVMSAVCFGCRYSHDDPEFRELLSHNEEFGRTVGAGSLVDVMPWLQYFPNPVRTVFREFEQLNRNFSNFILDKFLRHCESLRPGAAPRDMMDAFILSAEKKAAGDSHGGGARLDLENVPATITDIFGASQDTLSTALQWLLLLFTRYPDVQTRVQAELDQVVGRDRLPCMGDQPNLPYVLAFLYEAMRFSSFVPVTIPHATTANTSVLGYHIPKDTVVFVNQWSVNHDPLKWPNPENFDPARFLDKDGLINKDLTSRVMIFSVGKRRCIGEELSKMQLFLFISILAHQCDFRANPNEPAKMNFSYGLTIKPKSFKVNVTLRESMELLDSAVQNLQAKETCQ
Description: as §1, §2, §3

P450 2C19 = target: T3, P450 2C19 (Homo sapiens, UniProt P33261); conditions: recombinant P450 2C19, preliminary screen
T3 construct: made in house; host or cells: Escherichia coli, bacterial membrane fraction, bicistronic vector; reductase topped up to five fold the P450 concentration
Description: as §1, §2, §3

P450 2C9 = target: T4, P450 2C9 (Homo sapiens, UniProt P11712); conditions: recombinant P450 2C9, preliminary screen
T4 construct: made in house; host or cells: Escherichia coli, bacterial membrane fraction, bicistronic vector; reductase topped up to five fold the P450 concentration
Description: as §1, §2, §3

P450 2D6 = target: T5, P450 2D6 (Homo sapiens, UniProt P10635); conditions: recombinant P450 2D6, preliminary screen
T5 construct: made in house; host or cells: Escherichia coli, bacterial membrane fraction, bicistronic vector
Description: as §1, §2, §3

P450 3A4 = conditions: recombinant P450 3A4, preliminary screen
Description: as §1, §2, §3

P450 3A5 = target: T6, P450 3A5 (Homo sapiens, UniProt P20815); conditions: recombinant P450 3A5, preliminary screen
T6 construct: made in house; host or cells: Escherichia coli, bacterial membrane fraction, bicistronic vector; reductase topped up to two fold the P450 concentration
Description: as §1, §2, §3

P450 2A13 = target: T7, P450 2A13 (Homo sapiens, UniProt Q16696); conditions: recombinant P450 2A13, preliminary screen
T7 construct: made in house; host or cells: Escherichia coli, bacterial membrane fraction
T7 sequence (Q16696 1-494): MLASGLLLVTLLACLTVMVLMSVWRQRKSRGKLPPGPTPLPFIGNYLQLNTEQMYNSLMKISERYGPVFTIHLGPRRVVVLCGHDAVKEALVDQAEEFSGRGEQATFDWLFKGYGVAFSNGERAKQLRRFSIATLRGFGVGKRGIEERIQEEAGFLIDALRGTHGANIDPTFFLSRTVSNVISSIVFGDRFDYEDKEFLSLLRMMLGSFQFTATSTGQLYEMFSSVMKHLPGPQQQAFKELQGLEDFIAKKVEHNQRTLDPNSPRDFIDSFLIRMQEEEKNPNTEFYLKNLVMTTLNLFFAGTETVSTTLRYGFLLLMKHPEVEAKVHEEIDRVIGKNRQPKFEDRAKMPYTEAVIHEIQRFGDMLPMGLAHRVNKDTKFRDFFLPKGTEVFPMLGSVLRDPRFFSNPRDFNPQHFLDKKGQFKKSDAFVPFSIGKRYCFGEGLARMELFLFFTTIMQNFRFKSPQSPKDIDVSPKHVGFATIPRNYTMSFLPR

Measured: consumption of 3

T5 sequence (P10635 whole entry): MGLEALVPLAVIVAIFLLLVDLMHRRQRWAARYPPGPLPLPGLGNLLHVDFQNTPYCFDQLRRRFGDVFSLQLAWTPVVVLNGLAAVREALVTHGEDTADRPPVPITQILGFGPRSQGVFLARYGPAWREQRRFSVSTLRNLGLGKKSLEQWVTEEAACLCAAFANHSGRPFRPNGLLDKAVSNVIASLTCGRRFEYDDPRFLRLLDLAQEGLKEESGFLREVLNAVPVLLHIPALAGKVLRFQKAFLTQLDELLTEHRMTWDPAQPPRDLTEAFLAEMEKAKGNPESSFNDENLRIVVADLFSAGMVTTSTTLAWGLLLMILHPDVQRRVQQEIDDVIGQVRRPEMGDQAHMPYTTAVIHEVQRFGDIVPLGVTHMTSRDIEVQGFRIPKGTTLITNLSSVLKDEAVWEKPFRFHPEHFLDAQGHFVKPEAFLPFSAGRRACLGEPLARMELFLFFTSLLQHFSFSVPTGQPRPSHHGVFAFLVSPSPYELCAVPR
T4 sequence (P11712 whole entry): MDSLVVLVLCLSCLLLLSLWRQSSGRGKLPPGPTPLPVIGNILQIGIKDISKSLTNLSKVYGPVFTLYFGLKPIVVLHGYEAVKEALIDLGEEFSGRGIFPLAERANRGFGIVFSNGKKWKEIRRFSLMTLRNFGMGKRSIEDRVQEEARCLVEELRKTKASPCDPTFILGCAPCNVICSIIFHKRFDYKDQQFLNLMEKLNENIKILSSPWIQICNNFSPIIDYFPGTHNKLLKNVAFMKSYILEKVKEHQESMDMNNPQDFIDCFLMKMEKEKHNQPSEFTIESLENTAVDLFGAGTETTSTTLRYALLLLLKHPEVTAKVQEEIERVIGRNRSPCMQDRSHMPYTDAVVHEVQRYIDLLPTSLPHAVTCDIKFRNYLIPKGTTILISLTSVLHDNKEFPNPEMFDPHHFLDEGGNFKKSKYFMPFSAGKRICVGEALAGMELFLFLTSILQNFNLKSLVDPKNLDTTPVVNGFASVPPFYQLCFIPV
T6 sequence (P20815 whole entry): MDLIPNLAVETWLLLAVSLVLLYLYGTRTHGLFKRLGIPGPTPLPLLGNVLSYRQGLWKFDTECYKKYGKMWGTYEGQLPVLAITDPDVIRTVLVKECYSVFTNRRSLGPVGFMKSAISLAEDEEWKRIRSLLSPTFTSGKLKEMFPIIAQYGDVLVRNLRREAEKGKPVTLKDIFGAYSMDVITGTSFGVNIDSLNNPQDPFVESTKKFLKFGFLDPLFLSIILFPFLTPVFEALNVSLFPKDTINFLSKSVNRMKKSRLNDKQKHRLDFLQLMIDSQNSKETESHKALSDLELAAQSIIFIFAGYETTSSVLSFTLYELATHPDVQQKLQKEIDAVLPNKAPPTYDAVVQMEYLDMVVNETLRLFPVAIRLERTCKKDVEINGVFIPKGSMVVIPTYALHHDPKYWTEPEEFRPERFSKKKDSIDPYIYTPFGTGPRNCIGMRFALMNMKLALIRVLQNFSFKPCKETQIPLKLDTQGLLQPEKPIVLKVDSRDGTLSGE
T3 sequence (P33261 whole entry): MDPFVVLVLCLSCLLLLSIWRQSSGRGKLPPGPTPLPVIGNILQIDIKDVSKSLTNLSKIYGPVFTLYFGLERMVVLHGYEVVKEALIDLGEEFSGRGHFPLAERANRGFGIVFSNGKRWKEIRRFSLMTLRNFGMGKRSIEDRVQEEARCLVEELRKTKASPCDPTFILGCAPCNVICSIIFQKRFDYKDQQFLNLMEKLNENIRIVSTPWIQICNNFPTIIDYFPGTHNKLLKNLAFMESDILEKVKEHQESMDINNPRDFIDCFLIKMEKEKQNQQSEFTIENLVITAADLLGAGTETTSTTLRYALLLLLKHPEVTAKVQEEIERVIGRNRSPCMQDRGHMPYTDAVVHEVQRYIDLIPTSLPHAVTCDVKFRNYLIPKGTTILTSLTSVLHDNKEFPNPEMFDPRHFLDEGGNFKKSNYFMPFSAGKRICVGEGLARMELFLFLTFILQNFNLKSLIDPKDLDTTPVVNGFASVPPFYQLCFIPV

C/C=C\C=C/CC/C=C/C=C/C(=O)NCC(C)C [alkylamide 3, (2E,4E,8Z,10Z)—N-isobutyldodeca-2,4,8,10-tetraenamide]
observed: all assays above

— US9205121B2, “Echinacea formulation” (Integria Healthcare (Australia) PTY LTD, priority 2004, dated 2015)
